Measured values: patent US9133195B2, “Quaternary ammonium salt compounds of spirocyclopiperazines, preparation methods and uses thereof” (Peking University, priority 2006, dated 2015)
Where two headings read alike, the source gives them in different places.

Columns and labels:
Kunming mice [1] = assay: Acetic acid-induced writhing test; assay type: in vivo; details: Mus musculus, sc; 31.0 umol/kg s.c.; acetic acid i.p. after 30 min; writhing counted for 10 min
Experimental: Kunming mice, male and female in half, were randomly divided into groups with 8 mice in each group. The following groups were established: the normal saline (NS) control group, in which normal saline was administered by subcutaneous injection (s.c.); the test groups, in which 31.0 umol/kg quaternary ammonium salts compounds of piperazines of the present invention was administered by s.c. All drugs were dissolved in normal saline before use. The drug was injected at the dose of 0.1 ml/10 g. After 30 min, 0.2 ml of 0.6% acetic acid was injected intraperitoneally for each mouse. After 2˜3 min, the writhing reactions such as abdominal constriction, stretch of body and hind limbs, and hip raise occurred. Five minutes after acetic acid injection, the numbers of writhing was counted for 10 min. The percentage of inhibition was determined by using the following formula (1): Inhibition %=[(The numbers of writhing of control group−the numbers of writhing of drag injection group)/the numbers of writhing of control group]×100% (1) 2 Experimental Results
This experiment was carried out according to that of Example 36.

mice [2] = assay: Hot-plate test; assay type: in vivo; details: for pain threshold elevated rate (PTE %): at 2.0 h, 55° C. hot-plate; for ED50: Mus musculus, sc
Experimental: The temperature of the hot-plate was adjusted to 55° C. With licking hind paws and jumping as observation index, the time from placing of the animal on the hot plate to observation the above reactions was recorded as latency time, Latency time was measured for three times and calculated their mean value as Basal threshold or Baseline latency (BL), Mice with latency time of less than 5 s or more than 10 s were eliminated from the study. The remaining mice were divided into 8 groups, and 10 mice in each group. The following groups were established: the normal saline control group (NS), in which normal saline was administered (s.c.); the morphine control group (Mor), in which morphine was administered (s.c.) at the dose of 10.0 mg/kg; and compound LXM-10 groups, in which compound LXM-10 were administered (s.c.) at the dose of 0.75, 1.5, 3.0, 6.0, 12.0 and 24.0 mg/kg. All drugs were dissolved in normal saline before use. The drugs injected at the dose of 0.1 ml/10 g. The latency times were measured at 1.0, 1.5, 2.0, and 3.0 h after administering LXM-10. The cut-off time was set at 30 s to avoid skin scald. The percentage of pain threshold elevated rate (PTE %) was determined by using the following formula (2): PTE %=(The latency time of drug injection group−the latency time of control group at the corresponding time point)/the latency time of control group at the corresponding time point×100% (2)
To judge whether LXM-10 was effective as analgesic using this criterion: at the peak time point of this compound, the latency times of each compound LXM-10 group was greater than the mean latency time of normal saline control group at the corresponding time point plus three times of standard deviation. The effective percentage of each group was calculated made data conversion, then calculated the analgesic ED50 and 95% confidence interval (CI) in accordance with the formulae (3) and (4) using General Method for Calculating.
Wherein, Xm represents the logarithm value of the largest dose, i refers to group interval, ΣP refers to the sum of each group's efficiency, ΣP^2 represents the square sum of each group's efficiency, n refers to numbers of experimental groups.

ICR mice = assay: Formalin test; assay type: in vivo; details: 0.5 h after s.c., dose not stated
Experimental: Sixty ICR mice, male and female in half, were divided into six groups with 10 mice in each group. The following groups were established: the normal saline (NS) control group, in which normal saline was administered by s.c.; the aspirin control group, in which aspirin was administered by i.g. at the dose of 300 mg/kg; the morphine control, group, in which morphine was administered (s.c.) at the dose of 10.0 mg/kg; and compound LXM-10 groups, in which compound LXM-10 were administered (s.c.) at the dose of 0.75, 1.5, 3.0 and 6.0 mg/kg. All drugs were dissolved in normal saline before use. The drugs injected at the dose of 0.1 ml/10 g. 30 min after administration, animals were administered 20 ul of 2.5% formalin solution on the right front paws. The licking times were recorded immediately in the duration of 0˜5 minutes as phase I reaction; After 20 minutes, the licking times were recorded in the duration of 20˜25 minutes as phase II reaction. The percentage of pain inhibition (%) was determined by using the following formula (5): Pain inhibition %=[(The licking time of normal saline control group−the licking time of drug injection group)/the licking time of normal saline control group]×100% (5) 2. Experimental Results

mice [3] = assay: Addiction test (tail-erected response); assay type: in vivo; details: doses of 6.0, 12.0, 24.0 or 445.0 mg/kg
Experimental: (§1) All the following tests were carried out by using compound LXM-10 according to the routine methods.
They are quiet and normal.

Acute toxicity test = details: in vivo, sc
Experimental: as §1

mice [4] = assay: Function of motion coordination (rota-rod); assay type: in vivo; details: for Time of falling down from rota-rod: before treatment
Experimental: as §1
The effect of muscle-relaxed effect on the analgesic effect of LXM-10 was also excluded.

mice [5] = assay: Spontaneous motion in mice; assay type: in vivo; details: for Numbers of movement: before treatment
Experimental: as §1

Body temperature in mice = assay type: in vivo; details: for Rectal temperature: before treatment
Experimental: as §1

Kunming mice [6] = assay: Acetic acid-induced writhing test; assay type: in vivo; details: 0.5 h after s.c. administration

In the case of `CC1C[N+]2(CCN(CCc3ccccc3)CC2)CC(C)O1` (stereo not drawn) [LXM-10, 2,4-dimethyl-9-β-phenylethyl-3-oxo-6,9-diazaspiro[5.5]undecane chloride], the inhibition in vivo at 31 µmol/kg (Kunming mice [1]) is reported as 65%, the “pain threshold elevated rate (PTE %)” value (mice [2]; 1.5 mg/kg s.c.) is reported as 47.5% and the “pain threshold elevated rate (PTE %)” value (mice [2]; 3.0 mg/kg s.c.) is reported as 54.8%. The “pain threshold elevated rate (PTE %)” value (mice [2]; 6.0 mg/kg s.c.) was 79.2%, the “pain threshold elevated rate (PTE %)” value (mice [2]; 12.0 mg/kg s.c.) was 126.8% and the ED50 (mice [2]; hot-plate, at peak time, read-out: analgesic ED50) was 3.2 mg/kg. For the same molecule, the ED50 (mice [2]; hot-plate, read-out: ED50 95% confidence interval) was 1.8 to 5.4 mg/kg, the “analgesic effect persisted to” value (mice [2]; s.c., hot-plate) was 3.0 h and the “onset time of analgesic effect” value (mice [2]; s.c., hot-plate) was 1.0 h. For the same molecule, the “peak time of analgesic effect” value (mice [2]; s.c., hot-plate) was 2.0 h, the “percentage of pain inhibition, Phase II” value (ICR mice; first of three values) was 67.0% and the “percentage of pain inhibition, Phase II” value (ICR mice; second of three values) was 69.6%. For the same molecule, the “percentage of pain inhibition, Phase II” value (ICR mice; third of three values) was 50.0%, the tail-erected response (mice [3]) was “no tail-erected response” and the LD50 (Acute toxicity test; read-out: LD50) was 514 mg/kg. The LD50 (Acute toxicity test; read-out: LD50 95% confidence interval) was 495 to 531 mg/kg, the “Time of falling down from rota-rod after treatment” value (“Time … after treatment” for short) (mice [4]; 6.0 mg/kg, 0.5 h) was 106.5 ± 8.88 s and the “Time … after treatment” value (mice [4]; 6.0 mg/kg, 2.0 h) was 110.0 ± 5.17 s. For the same molecule, the “Time … after treatment” value (mice [4]; 6.0 mg/kg, 3.5 h) was 116.2 ± 3.75 s, the “Time of falling down from rota-rod” value (mice [4]; 6.0 mg/kg) was 96.7 ± 9.17 s and the “Time … after treatment” value (mice [4]; 12.0 mg/kg, 0.5 h) was 109.6 ± 10.3 s. The “Time … after treatment” value (mice [4]; 12.0 mg/kg, 2.0 h) was 109.3 ± 8.15 s, the “Time … after treatment” value (mice [4]; 12.0 mg/kg, 3.5 h) was 119.6 ± 0.38 s and the “Time of falling down from rota-rod” value (mice [4]; 12.0 mg/kg) was 96.6 ± 8.93 s. The “Time … after treatment” value (mice [4]; 24.0 mg/kg, 0.5 h) was 112.7 ± 5.18 s, the “Time … after treatment” value (mice [4]; 24.0 mg/kg, 2.0 h) was 117.5 ± 2.50 s and the “Time … after treatment” value (mice [4]; 24.0 mg/kg, 3.5 h) was 119.0 ± 1.00 s. For the same molecule, the “Time of falling down from rota-rod” value (mice [4]; 24.0 mg/kg) was 101.2 ± 9.15 s, the “effect on function of motion coordination” value (mice [4]; 6.0, 12.0, 24.0 mg/kg) was “did not significantly affect” and the “Numbers of movement after treatment” value (mice [5]; 6.0 mg/kg, 0.5 h) was 46.6 ± 2.63. For the same molecule, the “Numbers of movement after treatment” value (mice [5]; 6.0 mg/kg, 2.0 h) was 42.3 ± 3.38, the “Numbers of movement after treatment” value (mice [5]; 6.0 mg/kg, 3.5 h) was 48.0 ± 5.00 and the Numbers of movement (mice [5]; 6.0 mg/kg) was 46.8 ± 1.96. The “Numbers of movement after treatment” value (mice [5]; 12.0 mg/kg, 0.5 h) was 48.0 ± 6.21, the “Numbers of movement after treatment” value (mice [5]; 12.0 mg/kg, 2.0 h) was 48.1 ± 6.14 and the “Numbers of movement after treatment” value (mice [5]; 12.0 mg/kg, 3.5 h) was 48.0 ± 7.85. For the same molecule, the Numbers of movement (mice [5]; 12.0 mg/kg) was 47.7 ± 2.55, the “Numbers of movement after treatment” value (mice [5]; 24.0 mg/kg, 0.5 h) was 43.5 ± 4.21 and the “Numbers of movement after treatment” value (mice [5]; 24.0 mg/kg, 2.0 h) was 45.5 ± 6.05. For the same molecule, the “Numbers of movement after treatment” value (mice [5]; 24.0 mg/kg, 3.5 h) was 46.6 ± 3.69, the Numbers of movement (mice [5]; 24.0 mg/kg) was 50.2 ± 2.31 and the “effect on spontaneous motion” value (mice [5]; 6.0, 12.0, 24.0 mg/kg) was “did not significantly affect”. The “Rectal temperature after treatment” value (Body temperature in mice; 6.0 mg/kg, 0.5 h) was 37.3 ± 0.35 °C, the “Rectal temperature after treatment” value (Body temperature in mice; 6.0 mg/kg, 2.0 h) was 37.3 ± 0.28 °C and the “Rectal temperature after treatment” value (Body temperature in mice; 6.0 mg/kg, 3.5 h) was 37.5 ± 0.29 °C. For the same molecule, the Rectal temperature (Body temperature in mice; 6.0 mg/kg) was 37.7 ± 0.34 °C, the “Rectal temperature after treatment” value (Body temperature in mice; 12.0 mg/kg, 0.5 h) was 37.0 ± 0.26 °C and the “Rectal temperature after treatment” value (Body temperature in mice; 12.0 mg/kg, 2.0 h) was 37.1 ± 0.24 °C. The “Rectal temperature after treatment” value (Body temperature in mice; 12.0 mg/kg, 3.5 h) was 37.1 ± 0.20 °C, the Rectal temperature (Body temperature in mice; 12.0 mg/kg) was 37.1 ± 0.09 °C and the “Rectal temperature after treatment” value (Body temperature in mice; 24.0 mg/kg, 0.5 h) was 37.5 ± 0.21 °C. The “Rectal temperature after treatment” value (Body temperature in mice; 24.0 mg/kg, 2.0 h) was 37.0 ± 0.19 °C, the “Rectal temperature after treatment” value (Body temperature in mice; 24.0 mg/kg, 3.5 h) was 37.3 ± 0.16 °C and the Rectal temperature (Body temperature in mice; 24.0 mg/kg) was 37.0 ± 0.18 °C. The “effect on body temperature” value (Body temperature in mice; 6.0, 12.0, 24.0 mg/kg) was “did not affect”, the “percentage of pain inhibition” value (Kunming mice [6]; 1.5 mg/kg) was 63.4% and the “percentage of pain inhibition” value (Kunming mice [6]; 3.0 mg/kg) was 78.8%. The “percentage of pain inhibition” value (Kunming mice [6]; 6.0 mg/kg) was 79.2% and the “percentage of pain inhibition” value (Kunming mice [6]; 12.0 mg/kg) was 55.6%.
